Here are results for 24 compounds from patent US20230087342A1, “AZEPANE DERIVATIVE” (Nippon Chemiphar Co., Ltd., priority 2019, published 2023).

This assay addresses T1, human κ opioid receptors (Homo sapiens, UniProt P41145).
T1 construct: host or cells: CHO cells
Kind of assay: Opioid receptor function test (Lance Ultra cAMP kit, agonist activity). The assay is classed as cell-based. As to conditions: CHO cells expressing human κ opioid receptors, 10 μM forskolin, 30 minutes. The method in brief:
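CHO cells expressing human κ opioid receptor incubated 30 min with test compound (10^−14 to 10^−7 M) and 10 μM forskolin in HSS/5 mM HEPES pH 7.4 with 0.5 mM IBMX and 0.1% SA. cAMP measured by TR-FRET (Lance Ultra) 1 h after detection reagent addition.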

T1 sequence (P41145 whole entry): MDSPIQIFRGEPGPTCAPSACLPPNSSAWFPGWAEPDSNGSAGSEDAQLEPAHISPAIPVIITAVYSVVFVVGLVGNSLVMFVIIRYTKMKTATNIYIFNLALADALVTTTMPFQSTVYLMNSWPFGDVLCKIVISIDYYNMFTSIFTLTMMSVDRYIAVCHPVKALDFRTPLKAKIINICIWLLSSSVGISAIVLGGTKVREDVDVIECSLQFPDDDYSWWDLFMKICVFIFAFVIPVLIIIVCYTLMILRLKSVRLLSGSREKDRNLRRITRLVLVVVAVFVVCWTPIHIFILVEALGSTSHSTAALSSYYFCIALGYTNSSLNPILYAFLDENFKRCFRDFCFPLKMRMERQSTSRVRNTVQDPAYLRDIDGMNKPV

As a reminder, the EC50 is the concentration giving half of the maximal effect. For `Oc1ccc2c(c1)[C@@]13CCN(CCc4cn5ccccc5n4)CC[C@@]1(O)[C@@H](C2)N(CC1CC1)CC3` [Example 116, (5aS,6R,11bS)-14-(cyclopropylmethyl)-3-(2-(imidazo[1,2-a]pyridin-2-yl)ethyl)-2,3,4,5,6,7-hexahydro-6,11b-(epiminoethano)naphtho[1,2-d]azepine-5a,10(1H)-diol], the EC50 was 0.021 nM.

In the case of `Cn1cnc(CCN2CC[C@]34CCN(CC5CC5)[C@H](Cc5ccc(O)cc53)[C@]4(O)CC2)c1` [Example 41, (5aS,6R,11bS)-14-(cyclopropylmethyl)-3-(2-(1-methyl-1H-imidazol-4-yl)ethyl)-2,3,4,5,6,7-hexahydro-6,11b-(epiminoethano)naphtho[1,2-d]azepine-5a,10(1H)-diol], a half-maximal effect (EC50) was put at 0.13 nM. Compared with the last compound, the EC50 is about 6.2-fold higher.

Turning to `Cc1cc2c(cc1O)[C@@]13CCN(C(=O)Cc4cc(C(F)(F)F)ccn4)CC[C@@]1(O)[C@@H](C2)N(CC1CC1)CC3` [Example 355, 1-((5aS,6R,11bR)-14-(cyclopropylmethyl)-5a,10-dihydroxy-9-methyl-1,2,5,5a,6,7-hexahydro-6,11b-(epiminoethano)naphtho[1,2-d]azepin-3(4H)-yl)-2-(4-(trifluoromethyl)pyridin-2-yl)ethan-1-one], the concentration giving a half-maximal response (EC50) came out at 0.11 nM.

Compound `C[Si]1(C)CCN(CC(=O)N2CC[C@]34CCN(CC5CC5)[C@H](Cc5ccc(O)cc53)[C@]4(O)CC2)CC1` [Example 132, 1-((5aS,6R,11bR)-14-(cyclopropylmethyl)-5a,10-dihydroxy-1,2,5,5a,6,7-hexahydro-6,11b-(epiminoethano)naphtho[1,2-d]azepin-3(4H)-yl)-2-(4,4-dimethyl-1,4-azasilinan-1-yl)ethan-1-one] had a 50% effective concentration (EC50) of 0.16 nM.

In turn, `CC(C)c1cnn(CCN2CC[C@]34CCN(CC5CC5)[C@H](Cc5ccc(O)cc53)[C@]4(O)CC2)c1` [Example 195, (5aS,6R,11bS)-14-(cyclopropylmethyl)-3-(2-(4-isopropyl-1H-pyrazol-1-yl)ethyl)-2,3,4,5,6,7-hexahydro-6,11b-(epiminoethano)naphtho[1,2-d]azepine-5a,10(1H)-diol] displayed a concentration for a half-maximal effect (EC50) of 0.023 nM.

For the compound `O=C(Cn1cc(Br)cn1)N1CC[C@]23CCN(CC4CC4)[C@H](Cc4ccc(O)cc42)[C@]3(O)CC1` [Example 60, 2-(4-bromo-1H-pyrazol-1-yl)-1-((5aS,6R,11bR)-14-(cyclopropylmethyl)-5a,10-dihydroxy-1,2,5,5a,6,7-hexahydro-6,11b-(epiminoethano)naphtho[1,2-d]azepin-3(4H)-yl)ethan-1-one], the EC50 turned out to be 0.056 nM.

Compound `CC(C)c1cn(CC(=O)N2CC[C@]34CCN(CC5CC5)[C@H](Cc5ccc(O)cc53)[C@]4(O)CC2)nn1` [Example 165, 1-((5aS,6R,11bR)-14-(cyclopropylmethyl)-5a,10-dihydroxy-1,2,5,5a,6,7-hexahydro-6,11b-(epiminoethano)naphtho[1,2-d]azepin-3(4H)-yl)-2-(4-isopropyl-1H-1,2,3-triazol-1-yl)ethan-1-one] registered an EC50 of 0.28 nM.

Compound `Cc1cn(CCN2CC[C@]34CCN(CC5CC5)[C@H](Cc5ccc(O)cc53)[C@]4(O)CC2)nc1C(F)(F)F` [Example 164, (5aS,6R,11bS)-14-(cyclopropylmethyl)-3-(2-(4-methyl-3-(trifluoromethyl)-1H-pyrazol-1-yl)ethyl)-2,3,4,5,6,7-hexahydro-6,11b-(epiminoethano)naphtho[1,2-d]azepine-5a,10(1H)-diol] yielded an EC50 of 0.26 nM.

As for `Cc1cnn(CC(=O)N2CC[C@]34CCN(CC5CC5)[C@H](Cc5cc(C)c(O)cc53)[C@]4(O)CC2)c1` [Example 328, 1-((5aS,6R,11bR)-14-(cyclopropylmethyl)-5a,10-dihydroxy-9-methyl-1,2,5,5a,6,7-hexahydro-6,11b-(epiminoethano)naphtho[1,2-d]azepin-3(4H)-yl)-2-(4-methyl-1H-pyrazol-1-yl)ethan-1-one], the concentration for a half-maximal effect (EC50) amounted to 0.33 nM.

As for `Cc1cc(CCN2CC[C@]34CCN(CC5CC5)[C@H](Cc5ccc(O)cc53)[C@]4(O)CC2)no1` [Example 188, (5aS,6R,11bS)-14-(cyclopropylmethyl)-3-(2-(5-methylisoxazol-3-yl)ethyl)-2,3,4,5,6,7-hexahydro-6,11b-(epiminoethano)naphtho[1,2-d]azepine-5a,10(1H)-diol], the EC50 stood at 0.69 nM.

The compound `CN(C)CCC(=O)N1CC[C@]23CCN(CC4CC4)[C@H](Cc4ccc(O)cc42)[C@]3(O)CC1` [Example 186, 1-((5aS,6R,11bR)-14-(cyclopropylmethyl)-5a,10-dihydroxy-1,2,5,5a,6,7-hexahydro-6,11b-(epiminoethano)naphtho[1,2-d]azepin-3(4H)-yl)-3-(dimethylamino)propan-1-one] registered a concentration giving a half-maximal response (EC50) of 0.99 nM.

Compound `Cc1cc2c(cc1O)[C@@]13CCN(C(=O)Cc4n[nH]c5ccccc45)CC[C@@]1(O)[C@@H](C2)N(CC1CC1)CC3` [Example 357, 1-((5aS,6R,11bR)-14-(cyclopropylmethyl)-5a,10-dihydroxy-9-methyl-1,2,5,5a,6,7-hexahydro-6,11b-(epiminoethano)naphtho[1,2-d]azepin-3(4H)-yl)-2-(1H-indazol-3-yl)ethan-1-one] came in with an EC50 of 0.062 nM.

For `Cc1cnn(CCCN2CC[C@]34CCN(CC5CC5)[C@H](Cc5ccc(O)cc53)[C@]4(O)CC2)c1` [Example 230, (5aS,6R,11bS)-14-(cyclopropylmethyl)-3-(3-(4-methyl-1H-pyrazol-1-yl)propyl)-2,3,4,5,6,7-hexahydro-6,11b-(epiminoethano)naphtho[1,2-d]azepine-5a,10(1H)-diol], the EC50 came to 0.066 nM.

In the case of `Cc1cnn(CCN2CC[C@]34CCN(CC5CC5)[C@H](Cc5ccc(O)cc53)[C@]4(O)CC2(C)C)c1` [Example 270, (5aS,6R,11bR)-14-(cyclopropylmethyl)-4,4-dimethyl-3-(2-(4-methyl-1H-pyrazol-1-yl)ethyl)-2,3,4,5,6,7-hexahydro-6,11b-(epiminoethano)naphtho[1,2-d]azepine-5a,10(1H)-diol], a half-maximal effect (EC50) was put at 0.052 nM.

In turn, `Cc1cn(CC(=O)N2CC[C@]34CCN(CC5CC5)[C@H](Cc5ccc(O)cc53)[C@]4(O)CC2)nc1C(F)(F)F` [Example 163, 1-((5aS,6R,11bR)-14-(cyclopropylmethyl)-5a,10-dihydroxy-1,2,5,5a,6,7-hexahydro-6,11b-(epiminoethano)naphtho[1,2-d]azepin-3(4H)-yl)-2-(4-methyl-3-(trifluoromethyl)-1H-pyrazol-1-yl)ethan-1-one] gave a concentration for a half-maximal effect (EC50) of 0.076 nM.

For the compound `Cn1nc(CCN2CC[C@]34CCN(CC5CC5)[C@H](Cc5ccc(O)cc53)[C@]4(O)CC2)cc1C(F)(F)F` [Example 37, (5aS,6R,11bS)-14-(cyclopropylmethyl)-3-(2-(1-methyl-5-(trifluoromethyl)-1H-pyrazol-3-yl)ethyl)-2,3,4,5,6,7-hexahydro-6,11b-(epiminoethano)naphtho[1,2-d]azepine-5a,10(1H)-diol], the response was half-maximal at 0.051 nM (EC50).

Consider `Oc1ccc2c(c1)[C@@]13CCN(CCc4ccco4)CC[C@@]1(O)[C@@H](C2)N(CC1CC1)CC3` [Example 32, (5aS,6R,11bS)-14-(cyclopropylmethyl)-3-(2-(furan-2-yl)ethyl)-2,3,4,5,6,7-hexahydro-6,11b-(epiminoethano)naphtho[1,2-d]azepine-5a,10(1H)-diol], for which it took 0.13 nM to reach a half-maximal effect (EC50).

On to `Cc1cnn(CC(=O)N2CC[C@]34CCN(CC5CC5)[C@H](Cc5ccc(O)cc53)[C@]4(O)CC2)c1` [Example 49, 1-((5aS,6R,11bR)-14-(cyclopropylmethyl)-5a,10-dihydroxy-1,2,5,5a,6,7-hexahydro-6,11b-(epiminoethano)naphtho[1,2-d]azepin-3(4H)-yl)-2-(4-methyl-1H-pyrazol-1-yl)ethan-1-one], for which the EC50 amounted to 0.089 nM. The EC50 values of the last two compounds are within 1.5-fold of each other.

As for `Cc1cc(CC(=O)N2CC[C@]34CCN(CC5CC5)[C@H](Cc5ccc(O)cc53)[C@]4(O)CC2)no1` [Example 185, 1-((5aS,6R,11bR)-14-(cyclopropylmethyl)-5a,10-dihydroxy-1,2,5,5a,6,7-hexahydro-6,11b-(epiminoethano)naphtho[1,2-d]azepin-3(4H)-yl)-2-(5-methylisoxazol-3-yl)ethan-1-one], the half-maximal effective concentration (EC50) was 0.39 nM.

Consider `Oc1ccc2c(c1)[C@@]13CCN(CCN4CCCCC4)CC[C@@]1(O)[C@@H](C2)N(CC1CC1)CC3` [Example 130, (5aS,6R,11bS)-14-(cyclopropylmethyl)-3-(2-(piperidin-1-yl)ethyl)-2,3,4,5,6,7-hexahydro-6,11b-(epiminoethano)naphtho[1,2-d]azepine-5a,10(1H)-diol], for which the EC50 is 0.36 nM.

For the compound `Oc1ccc2c(c1)[C@@]13CCN(CCn4cc5ccccc5n4)CC[C@@]1(O)[C@@H](C2)N(CC1CC1)CC3` [Example 120, (5aS,6R,11bS)-3-(2-(2H-indazol-2-yl)ethyl)-14-(cyclopropylmethyl)-2,3,4,5,6,7-hexahydro-6,11b-(epiminoethano)naphtho[1,2-d]azepine-5a,10(1H)-diol], the 50% effective concentration (EC50) was found to be 0.053 nM.

`Cc1cc2c(cc1O)[C@@]13CCN(C(=O)Cn4cc(C(F)(F)F)cn4)CC[C@@]1(O)[C@@H](C2)N(CC1CC1)CC3` [Example 329, 1-((5aS,6R,11bR)-14-(cyclopropylmethyl)-5a,10-dihydroxy-9-methyl-1,2,5,5a,6,7-hexahydro-6,11b-(epiminoethano)naphtho[1,2-d]azepin-3(4H)-yl)-2-(4-(trifluoromethyl)-1H-pyrazol-1-yl)ethan-1-one] had an EC50 of 0.084 nM.

`Oc1ccc2c(c1)[C@@]13CCN(CCc4cnccn4)CC[C@@]1(O)[C@@H](C2)N(CC1CC1)CC3` [Example 84, (5aS,6R,11bS)-14-(cyclopropylmethyl)-3-(2-(pyrazin-2-yl)ethyl)-2,3,4,5,6,7-hexahydro-6,11b-(epiminoethano)naphtho[1,2-d]azepine-5a,10(1H)-diol] yielded a half-maximal effective concentration (EC50) of 0.47 nM.

As for `Cc1cnn(CCN2CC[C@]34CCN(CC5(F)CC5)[C@H](Cc5ccc(O)cc53)[C@]4(O)CC2)c1` [Example 226, (5aS,6R,11bS)-14-((1-fluorocyclopropyl)methyl)-3-(2-(4-methyl-1H-pyrazol-1-yl)ethyl)-2,3,4,5,6,7-hexahydro-6,11b-(epiminoethano)naphtho[1,2-d]azepine-5a,10(1H)-diol], the concentration giving a half-maximal response (EC50) worked out at 0.017 nM.
